Converted amounts (≈) assume the structure as drawn.
Legend:
[1] = Metabolic stability in rat intestinal microsomes assessed as compound remaining after 60 mins in absence of NADPH/UDPGA; type: ADME, Intestine, Microsome; settings: for remaining at 1 h: intestinal microsomes, read-out: Stability; for Stability: microsomes, 1 h
[2] = Metabolic stability in rat intestinal microsomes assessed as compound remaining after 60 mins in presence of NADPH; type: ADME, Intestine, Microsome; settings: read-out: Stability
[3] = Metabolic stability in rat intestinal microsomes assessed as compound remaining after 60 mins in presence of UDPGA; type: ADME, Intestine, Microsome; settings: read-out: Stability
[4] = Metabolic stability in rat intestinal microsomes assessed as compound remaining after 60 mins in presence of NADPH/UDPGA; type: ADME, Intestine, Microsome; settings: for remaining at 1 h: intestinal microsomes, read-out: Stability; for Stability: microsomes, 1 h
[5] = molecular target: Serine/threonine-protein kinase pim-1 (Homo sapiens, UniProt P11309); test: Inhibition of PIM1 (unknown origin) using 5FAM-ARKRRRHPSGPPTA as substrate after 90 mins in presence of ATP by caliper microfluidic mobility shift assay
Sequence of Serine/threonine-protein kinase pim-1 (P11309 whole entry): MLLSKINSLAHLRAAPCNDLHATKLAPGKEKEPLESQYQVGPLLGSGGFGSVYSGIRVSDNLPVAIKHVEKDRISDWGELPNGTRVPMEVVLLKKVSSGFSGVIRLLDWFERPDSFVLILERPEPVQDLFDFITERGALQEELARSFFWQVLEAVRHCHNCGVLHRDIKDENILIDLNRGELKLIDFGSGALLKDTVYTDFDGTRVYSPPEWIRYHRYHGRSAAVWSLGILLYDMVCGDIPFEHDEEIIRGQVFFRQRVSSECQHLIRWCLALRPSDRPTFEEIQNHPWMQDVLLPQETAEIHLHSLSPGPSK

[6] = molecular target: Serine/threonine-protein kinase pim-2 (Homo sapiens, UniProt Q9P1W9); test: Inhibition of PIM2 (unknown origin) using 5FAM-ARKRRRHPSGPPTA as substrate after 90 mins in presence of ATP by caliper microfluidic mobility shift assay
Sequence of Serine/threonine-protein kinase pim-2 (Q9P1W9 whole entry): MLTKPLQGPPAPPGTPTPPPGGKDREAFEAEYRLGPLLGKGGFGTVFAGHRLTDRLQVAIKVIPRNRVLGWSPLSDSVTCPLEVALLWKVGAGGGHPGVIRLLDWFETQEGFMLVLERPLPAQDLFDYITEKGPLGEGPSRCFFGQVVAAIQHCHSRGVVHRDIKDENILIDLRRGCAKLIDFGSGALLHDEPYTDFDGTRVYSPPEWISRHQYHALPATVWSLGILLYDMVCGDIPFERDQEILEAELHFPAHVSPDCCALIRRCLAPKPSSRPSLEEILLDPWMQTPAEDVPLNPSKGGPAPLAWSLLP

[7] = molecular target: Serine/threonine-protein kinase pim-3 (Homo sapiens, UniProt Q86V86); test: Inhibition of PIM3 (unknown origin) using 5FAM-ARKRRRHPSGPPTA as substrate after 90 mins in presence of ATP by caliper microfluidic mobility shift assay
[8] = Clearance in rat liver microsomes; type: ADME, microsome
[9] = Clearance in rat hepatocytes; type: ADME, cell-based, Hepatocyte
[10] = Clearance in rat at 1 mg/kg, iv; type: ADME, organism-based; settings: in vivo
[11] = Oral bioavailability in rat at 5 mg/kg; type: ADME, organism-based; settings: in vivo
MM1.S = test: Antiproliferative activity against human MM1S cells after 72 hrs by CellTiter-Glo assay; type: functional, cell-based
[12] = Kinetic solubility of compound at pH 7.4; settings: buffer
[13] = Metabolic stability in mouse intestinal microsomes assessed as compound remaining after 60 mins in absence of NADPH/UDPGA; type: ADME, Intestine, Microsome; settings: 1 h
[14] = Metabolic stability in mouse intestinal microsomes assessed as compound remaining after 60 mins in presence of NADPH/UDPGA; type: ADME, Intestine, Microsome; settings: 1 h
[15] = Metabolic stability in human intestinal microsomes assessed as compound remaining after 60 mins in absence of NADPH/UDPGA; type: ADME, Intestine, Microsome; settings: 1 h
[16] = Metabolic stability in human intestinal microsomes assessed as compound remaining after 60 mins in presence of NADPH/UDPGA; type: ADME, Intestine, Microsome; settings: 1 h
[17] = Metabolic stability in dog intestinal microsomes assessed as compound remaining after 60 mins in absence of NADPH/UDPGA; type: ADME, Canis lupus familiaris, Intestine, Microsome; settings: 1 h
[18] = Metabolic stability in dog intestinal microsomes assessed as compound remaining after 60 mins in presence of NADPH/UDPGA; type: ADME, Canis lupus familiaris, Intestine, Microsome; settings: 1 h
[19] = Metabolic stability in cynomolgus monkey intestinal microsomes assessed as compound remaining after 60 mins in absence of NADPH/UDPGA; type: ADME, Macaca fascicularis, Intestine, Microsome; settings: 1 h
[20] = Metabolic stability in cynomolgus monkey intestinal microsomes assessed as compound remaining after 60 mins in presence of NADPH/UDPGA; type: ADME, Macaca fascicularis, Intestine, Microsome; settings: 1 h
[21] = Apparent permeability across apical to basolateral side in MDCK cells; type: ADME, cell-based, Canis lupus familiaris; settings: dog
[22] = Efflux ratio of apparent permeability in MDCK cells; settings: dog

Compound | remaining at 1 h [1] | remaining at 1 h [2] | remaining at 1 h [3] | remaining at 1 h [4] | Ki [5] | Ki [6] | Ki [7] | also measured
Cc1cncc(-c2ccc3cnn(-c4cccc(N5CCCNCC5)n4)c3c2)n1 | 91% | 84% | 100% | 101% | 0.4 nM | 7.9 nM | 0.2 nM | –
Cc1cncc(-c2cc3c(cn2)cnn3-c2cccc(N3CCCNCC3)n2)n1 | 91% | 99% | 85% | 91% | – | – | – | CLhep predicted [8]: 32 mL/min/kg; CLhep predicted [9]: 27 mL/min/kg; clearance [10]: 28 mL/min/kg; bioavailability [11]: 42%; IC50 (MM1.S): 5000 nM
Cc1cncc(-c2cc3c(cnn3-c3cccc(N4CCCNCC4)n3)nn2)n1 | 103% | 118% | 81% | 80% | 0.02 nM | 0.48 nM | 0.03 nM | –
CN1CCN(c2cc3c(-c4cccc(N5CCNCC5)n4)n[nH]c3cn2)CC1=O | – | 120% | 56% | 42% | – | – | – | solubility kinetic [12]: 93.4 µM (≈ 36.7 µg/mL); CLhep predicted [8]: 31 mL/min/kg; CLhep predicted [9]: 18 mL/min/kg; Stability [1]: 130%; clearance [10]: 19 mL/min/kg; bioavailability [11]: 1.4%
Cn1cc(-c2cc3c(-c4cccc(N5CCC[C@H](N)C5)n4)nn(C)c3cn2)cn1 | 95% | 91% | 92% | 102% | 38 nM | 170 nM | 23 nM | –
Cc1cncc(-c2cc3c(cn2)cnn3-c2cccc([C@H]3CNCCC3(F)F)n2)n1 | – | – | – | – | 0.07 nM | 0.23 nM | – | CLhep predicted [8]: 42 mL/min/kg; CLhep predicted [9]: 31 mL/min/kg; clearance [10]: 40 mL/min/kg; bioavailability [11]: 57%; IC50 (MM1.S): 1200 nM
CCn1cc(-c2cc3c(-c4cccc(N5CCOCC5)n4)n[nH]c3cn2)cn1 | 77% | 89% | 0.2% | 0.4% | – | 4 nM | 0.2 nM | –
Cc1ccc(-c2n[nH]c3cnc(-c4cccnc4)cc23)nc1N1CC[C@@H](N)C1 | – | – | – | – | – | – | – | Stability [1]: Stable; Stability [4]: Unstable; Stability [13]: Unstable; Stability [14]: Unstable; Stability [15]: Stable; Stability [16]: Stable; Stability [17]: Stable; Stability [18]: Stable; Stability [19]: Stable; Stability [20]: Stable
c1cncc(-c2cc3c(-c4cccc(N5CCNCC5)n4)n[nH]c3cn2)c1 | – | – | – | – | – | – | – | Stability [1]: Stable; Stability [4]: Unstable; Stability [13]: Unstable; Stability [14]: Unstable; Stability [15]: Stable; Stability [16]: Stable; Stability [17]: Stable; Stability [18]: Stable; Stability [19]: Stable; Stability [20]: Stable
c1cncc(-c2cc3c(-c4cccc(N5CCCNCC5)n4)n[nH]c3cn2)c1 | – | – | – | – | – | – | – | Stability [1]: Stable; Stability [4]: Unstable; Stability [13]: Unstable; Stability [14]: Unstable; Stability [15]: Stable; Stability [16]: Stable; Stability [17]: Stable; Stability [18]: Stable; Stability [19]: Stable; Stability [20]: Stable
Cc1cncc(-c2cc3c(ccn3-c3cccc(N4CCCNCC4)n3)cn2)n1 | 98% | 100% | 104% | 102% | 0.5 nM | 9.6 nM | 0.8 nM | –
CCn1cc(-c2cc3c(-c4cccc(N5CCN(C)CC5)n4)n[nH]c3cn2)cn1 | 82% | 91% | 0.4% | 0.4% | 0.3 nM | 3 nM | 0.1 nM | –
Cc1cncc(-c2cnc3cnn(-c4cccc(N5CCCNCC5)n4)c3c2)n1 | 87% | 100% | 79% | 76% | 0.8 nM | 13 nM | 0.4 nM | –
Cn1cc(-c2cc3c(-c4cccc(N5CCC[C@@H](N)C5)n4)n[nH]c3cn2)cn1 | – | – | – | – | – | – | – | Stability [1]: Stable; Stability [4]: Unstable; Stability [13]: Unstable; Stability [14]: Unstable; Stability [15]: Stable; Stability [16]: Stable; Stability [17]: Stable; Stability [18]: Stable; Stability [19]: Stable; Stability [20]: Stable
Cc1ccc(-c2n[nH]c3cnc(-c4cccnc4)cc23)nc1N1CCC[C@H](N)C1 | 98% | 37% | 62% | 27% | – | – | – | solubility kinetic [12]: 81.2 µM (≈ 31.3 µg/mL); CLhep predicted [8]: 34 mL/min/kg; CLhep predicted [9]: 34 mL/min/kg; Papp A→B [21]: 3 ×10⁻⁶ cm/s; efflux ratio [22]: 1.8; clearance [10]: 21 mL/min/kg; bioavailability [11]: 0%
Cc1cncc(-c2cc(F)c3cnn(-c4cccc(N5CCCNCC5)n4)c3c2)n1 | 108% | 107% | 103% | 98% | 450 nM | 7400 nM | 270 nM | –
Cn1cc(-c2cc3c(-c4cccc(N5CCC[C@H](N)C5)n4)n[nH]c3cn2)cn1 | 87% | 86% | 67% | 69% | – | 0.2 nM | 0.02 nM | –
Cc1cncc(-c2cc3c(-c4cccc(N5CCCNCC5)n4)nsc3cn2)n1 | 101% | 101% | 91% | 98% | 0.7 nM | 18 nM | 1 nM | –
N[C@H]1CCCN(c2cccc(-c3n[nH]c4cnc(-c5cccnc5)cc34)n2)C1 | 93% | 34% | 48% | 26% | 0.04 nM | 0.2 nM | 0.02 nM | –
Cn1nc(-c2cccc(N3CCC[C@H](N)C3)n2)c2cc(-c3cccnc3)ncc21 | 96% | 59% | 103% | 62% | 190 nM | 630 nM | 120 nM | –
Cc1cncc(-c2cn3c(-c4cccc(N5CCCNCC5)n4)ncc3cn2)n1 | 106% | 111% | 69% | 66% | 0.5 nM | 16 nM | 0.4 nM | –

— ChEMBL document CHEMBL4049450, “Discovery of 5-Azaindazole (GNE-955) as a Potent Pan-Pim Inhibitor with Optimized Bioavailability” (J Med Chem, 2017)
